The values below are quoted from earlier work in PMC12156181, “Antitrypanosomal and Antileishmanial Activities of Tacca leontopetaloides Tubers and Zanthoxylum zanthoxyloides Stem Bark” (Molecules, 2025).

This data set has as its system T. b. brucei s427. The arrangement: method as in earlier work. The settings on record: cited from earlier work.

`COc1ccc2c(c1OC)C(CC(C)=O)N(C)c1c-2ccc2cc3c(cc12)OCO3` (stereo not shown) [6-Acetonyl-5,6-dihydrochelerythrine]: the “activity against T. b. brucei s427” value is “no significant activity”.
